Tests used:
HeLa cells [1] = experiment: Taxol sensitivity assay (apoptosis, propidium iodide staining and flow cytometry); format: cell-based, human; conditions: Aurora-A-overexpressing vs mock-transfected HeLa cells, different concentrations of Taxol for 72 hr, FIG. 1
Procedure: 2×10^5 cells in complete growth medium were plated in a 35 mm dish before transfection using the Gene Juice transfection reagent (Novagen, United Kingdom) according to the manufacturer's protocol. GFP-expressing cells were flow sorted as before, 48 hr after transfection. Equal numbers of flow sorted mock-transfected or Aurora-A-transfected HeLa cell were plated on 6 well plates in DMEM (Life Technologies, Grand Island, N.Y.) containing 10% FBS. Taxol (Sigma Chemical Co.) at different concentrations was added fresh from a stock prepared in DMSO. The cells were exposed to the drug for 72 hr after which they were analyzed by propidium iodide staining and flow cytometry as described earlier. Cells collected at the indicated time points were centrifuged at 1000 rpm for 5 min at room temperature. 1×10^6 cells were resuspended in 0.5 ml PBS, fixed by adding 4.5 ml of ice-cold 70% ethanol, and incubated overnight in fixative at 4° C. Before analysis, fixed cells were washed in PBS and incubated with propidium iodide staining solution (0.1% Triton.X-100, PBS; 0.02 mg/ml propidium iodide; 0.2 mg/ml RnaseA) for 30 min at room temperature. […] Ten thousand events were analyzed per sample. […] The percentage of apoptotic cells was then measured using propidium iodide staining and flow cytometry to enumerate the sub G1 (<2N DNA content) population.

HeLa cells [2] = conditions: stated as known; cited from earlier work
tubulin = conditions: compared with paclitaxel; cited from earlier work

Molecule | resistance to paclitaxel-induced apoptosis (percentage of apoptotic cells, sub G1 population) (HeLa cells [1]) | sensitivity of HeLa cells to Taxol-induced apoptosis (HeLa cells [2]) | tubulin-assembly activity relative to paclitaxel (tubulin)
CC(=O)O[C@H]1C(=O)[C@@]2(C)[C@H]([C@H](OC(=O)c3ccccc3)[C@]3(O)C[C@H](OC(=O)[C@H](O)[C@@H](NC(=O)c4ccccc4)c4ccccc4)C(C)=C1C3(C)C)[C@]1(OC(C)=O)CO[C@@H]1C[C@@H]2O [paclitaxel] | striking increase in resistance | highly sensitive | 
A-nor-paclitaxel |  |  | only three times less than that of paclitaxel

— patent US20060178318A1, “Use of aurora kinase inhibitors for reducing the resistance of cancer cells” (priority 2003, published 2006)
